Data reported in patent publication US20240390487A1, “TLR AGONISTS FOR REDUCING ACTIVATION-INDUCED PD-1 EXPRESSION ON T CELLS AND METHODS OF USE” (WISCONSIN ALUMNI RESEARCH FOUNDATION, priority 2016, published 2024).
“Also recorded” adds a separate entry of the source.

Columns and labels:
[1] = system: SSX2-expressing sarcoma cells; test: SSX2 tumor treatment study: DNA vaccine with or without TLR agonist; type: in vivo, mice; conditions: for anti-tumor efficacy / tumor growth suppression in combination with DNA vaccine: TLR agonist with DNA vaccine versus vaccine alone; for effect on tumor growth of TLR agonist alone (with vector DNA): with control vector pTVG4
Experimental: Mice expressing human HLA-A2 were injected subcutaneously with SSX2-expressing sarcoma cells. Starting one day after inoculation, and every 7 days thereafter, mice were vaccinated with a DNA vaccine encoding SSX2, an optimized version of SSX2 with increased affinity for HLA-A2 (pTVG-SSX2 opt) or negative control vector pTVG4. All were done with or without TLR1/2 agonist or TLR7 agonist mixed with the DNA. A solution of DNA and a solution of TLR agonist in PBS were made and mixed together prior to administration. Note that TLR stimulation via a TLR agonist improves the efficacy of pTVG-SSX2 opt to a greater extent than pTVG-SSX2.
Using this model, HLA-A2-expressing transgenic mice were implanted with synovial sarcoma, X breakpoint 2 (SSX-2)-expressing tumor cells. […], mice were then immunized weekly with control vector (pTVG4), DNA encoding native SSX2 (pTVG-SSX2), or DNA encoding high affinity HLA-A2 epitopes (pTVG-SSX2 opt) in the presence or absence of Pam3CSK4 (TLR1/2) or Gardiquimod (TLR7) agonist.
SSX2 tumor treatment studies: 6- to 8-week old HHDII-DR1 mice were inoculated with 10^5 A2/Sarc-SSX2 cells administered subcutaneously, and then immunized intradermally with DNA vaccines weekly beginning one day after tumor implantation, as previously described (42). TLR agonists or vehicle were co-administered with the vaccine intradermally, and tumor volumes were measured over time using calipers, as described above.

OT-1 CD8+ T cells = test: Adoptive transfer of OT-1 T cells and immunization of C57BL/6 mice, marker expression on splenic OT-1 T cells; type: in vivo; conditions: OVA or FT peptide immunization with TLR ligand versus peptide alone; splenocytes up to 14 days; early after T-cell activation
Excerpt: Vaccine type can affect expression of T-cell checkpoint molecules on activated CD8+ T cells: This Example used an ovalbumin vaccination model. OT-1 cells were adoptively transferred to naïve C57BL/6 mice. The day after transfer, mice were immunized once with (a) DNA encoding ovalbumin, (b) Listeria monocytogenes (Lm) encoding ovalbumin, (c) OVA257-264 peptide (SIINFEKL (SEQ ID NO:1)), (d) SIINFEKL peptide (SEQ ID NO:1) with DNA vector, (e) DNA vector alone, (f) Lm encoding control vector with no antigen, or (g) NS (non-specific) peptide. Splenocytes were collected the day after vaccination for expression of cell surface markers on antigen-specific OT-1 cells. […] LAG-3 expression was not reduced in the presence of Lm co-administered with peptide.
TLR stimulation at the time of T-cell activation reduced expression of PD-1 in vivo: To determine whether TLR stimulation at the time of T-cell activation with vaccination elicited a similar reduction in PD-1 in vivo, OT-1 cells were adoptively transferred to naïve C57BL/6 mice as above, and immunized once with OVA or FT peptide (or non-specific peptide) one day later in the presence or absence of a TLR 1/2, TLR7, or TLR9 ligand. Splenocytes were collected from groups up to 14 days after immunization and evaluated for expression of 4-1BB, PD-1 and LAG-3.
Adoptive transfer and immunization of wild type C57BL/6 (B6) mice: OT-1 splenocytes were harvested and CD8+ T cells were isolated as described above. 2×10^6 OT-1 T cells were adoptively transferred into 6- to 10-week old female B6 mice via intraperitoneal injection. The day following transfer, mice were immunized subcutaneously with 100 μg SIINFEKL peptide (SEQ ID NO:1) in PBS without adjuvant, intradermally with 100 μg plasmid encoding full length secreted chicken egg ovalbumin (pCI-neo-sOVA (psOVA), Addgene plasmid #25098, Cambridge, MA), intraperitoneally with 5×10^6 cfu of a Listeria monocytogenes vector encoding ovalbumin (Lm-OVA, gift of JD Sauer), or vehicle or corresponding wild-type Lm or DNA plasmid vector. TLR agonists were co-injected with the vaccine at the following concentrations: 20 μg/mouse Pam3CSK4, 100 μg/mouse Gardiquimod, 50 μg/mouse ODN 1826, or vehicle. Mice were euthanized at the times indicated. Spleens were collected, processed as described above, and T-cell populations analyzed by flow cytometry. Data collected on different days were normalized using rainbow beads (Spherotech, Lake Forest, IL; RFP-30-5A).

| Compound | anti-tumor efficacy / tumor growth suppression in combination with DNA vaccine [1] | effect on tumor growth of TLR agonist alone (with vector DNA) [1] | PD-1 expression on OT-1 CD8+ T cells in vivo (OT-1 CD8+ T cells) |
| --- | --- | --- | --- |
| CCNCc1nc2c(N)nc3ccccc3c2n1CC(C)(C)O [Gardiquimod] | significantly increased; also recorded: improved the tumor growth suppression | modest effects | significantly reduced |
| Pam3CSK4 | significantly increased; also recorded: improved the tumor growth suppression | modest effects | significantly reduced |
